Values after ≈ are worked out from the molar mass of the structure shown.
What was measured:
[1] = target: Proto-oncogene tyrosine-protein kinase receptor Ret (Homo sapiens, UniProt P07949); assay: Inhibition of recombinant human N-terminal GST-tagged RET (658 to end residues) expressed in baculovirus Sf21 insect cells preincubated for 5 mins followed by biotinyl-beta Abeta Abeta AAEEEEYFELVAKKK substrate addition after 30 to 60 mins in presence of ATP by fluorescence assay
NCI-H1975 = assay: Antiproliferative activity against human NCI-H1975 cells harboring EGFR L858R/T790M mutant after 72 hrs by MTT assay; format: functional, cell-based; settings: NCI-H1975, 72 h
[2] = Aqueous solubility of the compound at 1 mg; format: physicochemical
Mus musculus [3] = assay: Toxicity in nude mouse xenografted with human NCI-H1975 cells assessed as body weight loss at 25 mg/kg administered qd via oral gavage measured every 2 days up to 18 days; format: organism-based; settings: in vivo
[4] = target: Tyrosine-protein kinase TXK (Homo sapiens, UniProt P42681); assay: Inhibition of recombinant human N-terminal His6-tagged TXK (256 to end residues) expressed in baculovirus Sf21 insect cells preincubated for 5 mins followed by substrate addition after 30 to 60 mins in presence of ATP by fluorescence assay
[5] = target: Tyrosine-protein kinase ITK/TSK (Homo sapiens, UniProt Q08881); assay: Inhibition of recombinant human N-terminal His6-tagged ITK (352 to 617 residues) expressed in baculovirus Sf21 insect cells preincubated for 5 mins followed by Ulight-TK peptide substrate addition after 30 to 60 mins in presence of ATP by fluorescence assay
Chain of Tyrosine-protein kinase ITK/TSK (Q08881 whole entry, the tested form may be a part): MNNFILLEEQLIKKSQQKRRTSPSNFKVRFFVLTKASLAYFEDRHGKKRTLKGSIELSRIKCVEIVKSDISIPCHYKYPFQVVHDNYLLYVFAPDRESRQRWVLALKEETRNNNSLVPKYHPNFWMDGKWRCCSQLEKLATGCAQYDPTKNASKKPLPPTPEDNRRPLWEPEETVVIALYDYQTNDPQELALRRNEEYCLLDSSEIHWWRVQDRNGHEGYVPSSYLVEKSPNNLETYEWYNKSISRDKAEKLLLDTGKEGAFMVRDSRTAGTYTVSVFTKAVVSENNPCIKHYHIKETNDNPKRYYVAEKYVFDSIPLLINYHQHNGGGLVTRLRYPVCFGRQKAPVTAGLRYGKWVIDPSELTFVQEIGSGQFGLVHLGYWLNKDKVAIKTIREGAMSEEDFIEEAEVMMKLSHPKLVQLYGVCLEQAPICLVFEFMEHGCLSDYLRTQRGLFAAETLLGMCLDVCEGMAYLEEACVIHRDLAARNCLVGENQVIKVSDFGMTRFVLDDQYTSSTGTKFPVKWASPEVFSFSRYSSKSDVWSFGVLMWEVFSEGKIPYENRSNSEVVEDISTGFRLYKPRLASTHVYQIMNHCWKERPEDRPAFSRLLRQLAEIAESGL

[6] = target: Epidermal growth factor receptor (Homo sapiens, UniProt P00533); assay: Inhibition of recombinant human N-terminal GST-tagged EGFR (696 to end residues) expressed in baculovirus Sf21 insect cells preincubated for 5 mins followed by substrate addition after 30 to 60 mins in presence of ATP by fluorescence assay
[7] = target: Receptor tyrosine-protein kinase erbB-2 (Homo sapiens, UniProt P04626); assay: Inhibition of human C-terminal 6His-tagged Her2 (676 to end) expressed in baculovirus Sf21 insect cells preincubated for 5 mins followed by biotinyl-beta Abeta Abeta AAEEEEYFELVAKKK substrate addition after 30 to 60 mins in presence of ATP by fluorescence assay
Chain of Receptor tyrosine-protein kinase erbB-2 (P04626 whole entry, the tested form may be a part): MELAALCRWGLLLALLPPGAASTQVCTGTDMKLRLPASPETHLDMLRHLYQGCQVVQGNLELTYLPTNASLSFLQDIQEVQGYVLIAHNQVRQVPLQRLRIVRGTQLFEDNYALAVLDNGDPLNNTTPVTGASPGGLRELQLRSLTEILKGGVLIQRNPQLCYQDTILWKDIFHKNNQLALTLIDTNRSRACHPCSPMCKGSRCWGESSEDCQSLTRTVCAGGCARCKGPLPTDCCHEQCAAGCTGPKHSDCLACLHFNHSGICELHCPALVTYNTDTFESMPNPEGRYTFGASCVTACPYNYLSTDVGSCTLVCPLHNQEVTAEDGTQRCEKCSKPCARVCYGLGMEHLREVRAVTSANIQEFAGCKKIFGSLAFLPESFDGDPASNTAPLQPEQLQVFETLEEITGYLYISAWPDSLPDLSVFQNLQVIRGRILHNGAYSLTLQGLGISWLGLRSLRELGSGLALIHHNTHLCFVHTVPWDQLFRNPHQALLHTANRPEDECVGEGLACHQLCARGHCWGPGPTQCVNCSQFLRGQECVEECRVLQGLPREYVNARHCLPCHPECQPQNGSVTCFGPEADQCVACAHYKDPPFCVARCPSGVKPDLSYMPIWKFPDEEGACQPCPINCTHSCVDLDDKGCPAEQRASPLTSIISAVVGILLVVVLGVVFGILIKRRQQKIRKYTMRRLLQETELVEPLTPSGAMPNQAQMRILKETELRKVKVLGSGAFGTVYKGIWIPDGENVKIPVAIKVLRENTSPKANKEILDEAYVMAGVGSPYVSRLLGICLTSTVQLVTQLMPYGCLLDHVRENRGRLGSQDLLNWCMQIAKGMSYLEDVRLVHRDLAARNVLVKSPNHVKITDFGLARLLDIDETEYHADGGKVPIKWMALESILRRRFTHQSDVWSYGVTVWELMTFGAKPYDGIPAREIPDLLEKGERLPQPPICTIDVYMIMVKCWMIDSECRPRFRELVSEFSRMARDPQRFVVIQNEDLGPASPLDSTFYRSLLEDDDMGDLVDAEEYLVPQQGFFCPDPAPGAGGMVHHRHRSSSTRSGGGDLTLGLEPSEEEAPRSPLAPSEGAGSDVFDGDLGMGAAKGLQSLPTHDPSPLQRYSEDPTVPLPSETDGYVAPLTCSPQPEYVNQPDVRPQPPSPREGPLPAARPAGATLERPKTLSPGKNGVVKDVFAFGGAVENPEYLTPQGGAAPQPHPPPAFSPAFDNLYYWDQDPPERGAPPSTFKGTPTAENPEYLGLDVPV

[8] = target: Tyrosine-protein kinase HCK (Homo sapiens, UniProt P08631); assay: Inhibition of recombinant human N-terminal His6-tagged HCK (230 to 497 residues) expressed in baculovirus Sf21 insect cells preincubated for 5 mins followed by substrate addition after 30 to 60 mins in presence of ATP by fluorescence assay
Chain of Tyrosine-protein kinase HCK (P08631 whole entry, the tested form may be a part): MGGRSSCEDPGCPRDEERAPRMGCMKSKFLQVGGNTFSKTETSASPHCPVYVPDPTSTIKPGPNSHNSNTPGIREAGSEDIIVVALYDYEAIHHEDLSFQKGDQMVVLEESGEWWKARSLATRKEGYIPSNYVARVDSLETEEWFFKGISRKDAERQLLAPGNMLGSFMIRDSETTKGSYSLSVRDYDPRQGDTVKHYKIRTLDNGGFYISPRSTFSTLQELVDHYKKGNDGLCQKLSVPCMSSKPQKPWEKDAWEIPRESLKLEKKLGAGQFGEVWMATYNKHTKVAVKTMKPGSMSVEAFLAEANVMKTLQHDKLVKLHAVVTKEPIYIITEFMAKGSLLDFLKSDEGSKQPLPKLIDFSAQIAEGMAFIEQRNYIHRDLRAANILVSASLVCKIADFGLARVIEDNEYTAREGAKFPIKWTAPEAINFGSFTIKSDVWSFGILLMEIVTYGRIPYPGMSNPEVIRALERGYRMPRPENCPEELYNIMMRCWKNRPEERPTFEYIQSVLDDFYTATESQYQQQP

[9] = target: Protein-tyrosine kinase 6 (Homo sapiens, UniProt Q13882); assay: Inhibition of recombinant human full length N-terminal His6-tagged BRK expressed in baculovirus Sf21 insect cells preincubated for 5 mins followed by substrate addition after 30 to 60 mins in presence of ATP by fluorescence assay
Chain of Protein-tyrosine kinase 6 (Q13882 whole entry): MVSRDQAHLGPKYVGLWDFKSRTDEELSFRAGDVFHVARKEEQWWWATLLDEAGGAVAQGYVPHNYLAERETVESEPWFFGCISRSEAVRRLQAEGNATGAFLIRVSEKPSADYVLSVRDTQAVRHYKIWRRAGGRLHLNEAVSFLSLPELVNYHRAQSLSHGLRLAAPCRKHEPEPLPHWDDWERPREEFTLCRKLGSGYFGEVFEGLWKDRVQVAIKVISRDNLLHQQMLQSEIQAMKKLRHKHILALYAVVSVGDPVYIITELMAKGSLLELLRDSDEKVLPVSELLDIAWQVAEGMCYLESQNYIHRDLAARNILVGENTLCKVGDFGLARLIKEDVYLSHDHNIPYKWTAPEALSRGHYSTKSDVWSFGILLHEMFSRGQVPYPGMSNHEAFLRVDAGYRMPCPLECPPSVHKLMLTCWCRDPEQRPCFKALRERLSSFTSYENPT

[10] = target: Tyrosine-protein kinase ABL1 (Homo sapiens, UniProt P00519); assay: Inhibition of recombinant human N-terminal His6-tagged ABL (27 to end residues) expressed in baculovirus Sf21 insect cells preincubated for 5 mins followed by substrate addition after 30 to 60 mins in presence of ATP by fluorescence assay
[11] = target: Tyrosine-protein kinase Fer (Homo sapiens, UniProt P16591); assay: Inhibition of recombinant human N-terminal His6-tagged FER (541 to end residues) expressed in baculovirus Sf21 insect cells preincubated for 5 mins followed by substrate addition after 30 to 60 mins in presence of ATP by fluorescence assay
Chain of Tyrosine-protein kinase Fer (P16591 whole entry): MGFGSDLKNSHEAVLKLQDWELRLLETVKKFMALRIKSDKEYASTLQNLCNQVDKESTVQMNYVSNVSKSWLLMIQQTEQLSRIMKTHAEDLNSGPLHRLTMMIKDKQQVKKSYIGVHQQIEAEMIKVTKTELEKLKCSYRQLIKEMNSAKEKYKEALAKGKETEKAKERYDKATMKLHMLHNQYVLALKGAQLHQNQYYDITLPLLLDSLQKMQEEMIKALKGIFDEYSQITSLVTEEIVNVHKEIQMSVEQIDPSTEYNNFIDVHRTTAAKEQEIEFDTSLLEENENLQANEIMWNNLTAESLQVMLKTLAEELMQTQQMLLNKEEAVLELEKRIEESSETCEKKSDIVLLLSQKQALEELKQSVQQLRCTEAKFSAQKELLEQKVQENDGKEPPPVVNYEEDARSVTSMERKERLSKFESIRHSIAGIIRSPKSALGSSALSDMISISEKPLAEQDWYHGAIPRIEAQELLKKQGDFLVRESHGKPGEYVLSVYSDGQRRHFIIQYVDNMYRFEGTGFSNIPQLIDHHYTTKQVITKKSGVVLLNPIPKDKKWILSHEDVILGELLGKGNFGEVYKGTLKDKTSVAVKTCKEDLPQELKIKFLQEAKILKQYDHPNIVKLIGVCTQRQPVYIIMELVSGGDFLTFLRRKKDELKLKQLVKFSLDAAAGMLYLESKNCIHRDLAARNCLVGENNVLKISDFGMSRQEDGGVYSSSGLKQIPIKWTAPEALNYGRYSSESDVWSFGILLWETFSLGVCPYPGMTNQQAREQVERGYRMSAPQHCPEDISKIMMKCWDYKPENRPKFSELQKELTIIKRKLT

[12] = target: Platelet-derived growth factor receptor alpha (Homo sapiens, UniProt P16234); assay: Inhibition of human PDGFRalpha expressed in baculovirus Sf21 insect cells preincubated for 5 mins followed by substrate addition after 30 to 60 mins in presence of ATP by fluorescence assay
Homo sapiens [13] = organism: Homo sapiens; assay: Selectivity ratio of IC50 for recombinant human full length N-terminal His6-tagged BTK to IC50 for human full length N-terminal His6-tagged BMX
Homo sapiens [14] = organism: Homo sapiens; assay: Selectivity ratio of IC50 for recombinant human N-terminal His6-tagged TEC (174 to end residues) to IC50 for human full length N-terminal His6-tagged BMX
Homo sapiens [15] = organism: Homo sapiens; assay: Selectivity ratio of IC50 for recombinant human N-terminal His6-tagged TXK (256 to end residues) to IC50 for human full length N-terminal His6-tagged BMX
Homo sapiens [16] = organism: Homo sapiens; assay: Selectivity ratio of IC50 for recombinant human N-terminal His6-tagged ITK (352 to 617 residues) to IC50 for human full length N-terminal His6-tagged BMX
Homo sapiens [17] = organism: Homo sapiens; assay: Selectivity ratio of IC50 for C-terminal His6-tagged human Her2 (676 to end residues) to IC50 for human full length N-terminal His6-tagged BMX
Homo sapiens [18] = organism: Homo sapiens; assay: Selectivity ratio of IC50 for recombinant human N-terminal His6-tagged JAK3 (781 to end residues) to IC50 for human full length N-terminal His6-tagged BMX
Homo sapiens [19] = organism: Homo sapiens; assay: Selectivity ratio of IC50 for BLK (unknown origin) to IC50 for human full length N-terminal His6-tagged BMX
Homo sapiens [20] = organism: Homo sapiens; assay: Selectivity ratio of IC50 for recombinant human full length N-terminal His6-tagged YES to IC50 for human full length N-terminal His6-tagged BMX
Homo sapiens [21] = organism: Homo sapiens; assay: Selectivity ratio of IC50 for recombinant human full length N-terminal His6-tagged SRC to IC50 for human full length N-terminal His6-tagged BMX
Homo sapiens [22] = organism: Homo sapiens; assay: Selectivity ratio of IC50 for recombinant human full length N-terminal His6-tagged FYN to IC50 for human full length N-terminal His6-tagged BMX
Homo sapiens [23] = organism: Homo sapiens; assay: Selectivity ratio of IC50 for recombinant human N-terminal His6-tagged FRK (218 to end residues) to IC50 for human full length N-terminal His6-tagged BMX
Homo sapiens [24] = organism: Homo sapiens; assay: Selectivity ratio of IC50 for recombinant human full length N-terminal GST-tagged CSK to IC50 for human full length N-terminal His6-tagged BMX
Homo sapiens [25] = organism: Homo sapiens; assay: Selectivity ratio of IC50 for recombinant human N-terminal His6-tagged FMS (538 to end residues) to IC50 for human full length N-terminal His6-tagged BMX
Homo sapiens [26] = organism: Homo sapiens; assay: Selectivity ratio of IC50 for recombinant human full length N-terminal His6-tagged SYK to IC50 for human full length N-terminal His6-tagged BMX
Homo sapiens [27] = organism: Homo sapiens; assay: Selectivity ratio of IC50 for human PDGFRalpha to IC50 for human full length N-terminal His6-tagged BMX
Homo sapiens [28] = organism: Homo sapiens; assay: Selectivity ratio of IC50 for recombinant human N-terminal His6-tagged PLK1 to IC50 for human full length N-terminal His6-tagged BMX
Mus musculus [29] = assay: Toxicity in nude mouse xenografted with human NCI-H1975 cells assessed as body weight loss at 25 mg/kg administered qd via oral gavage for 18 days measured on day 14; format: organism-based; settings: in vivo, 432 h
Mus musculus [30] = assay: Toxicity in nude mouse xenografted with human NCI-H1975 cells assessed as abnormal behavior at 25 mg/kg administered qd via oral gavage for 18 days measured on day 14; format: organism-based; settings: in vivo, 432 h

Chain of Proto-oncogene tyrosine-protein kinase receptor Ret (P07949 whole entry): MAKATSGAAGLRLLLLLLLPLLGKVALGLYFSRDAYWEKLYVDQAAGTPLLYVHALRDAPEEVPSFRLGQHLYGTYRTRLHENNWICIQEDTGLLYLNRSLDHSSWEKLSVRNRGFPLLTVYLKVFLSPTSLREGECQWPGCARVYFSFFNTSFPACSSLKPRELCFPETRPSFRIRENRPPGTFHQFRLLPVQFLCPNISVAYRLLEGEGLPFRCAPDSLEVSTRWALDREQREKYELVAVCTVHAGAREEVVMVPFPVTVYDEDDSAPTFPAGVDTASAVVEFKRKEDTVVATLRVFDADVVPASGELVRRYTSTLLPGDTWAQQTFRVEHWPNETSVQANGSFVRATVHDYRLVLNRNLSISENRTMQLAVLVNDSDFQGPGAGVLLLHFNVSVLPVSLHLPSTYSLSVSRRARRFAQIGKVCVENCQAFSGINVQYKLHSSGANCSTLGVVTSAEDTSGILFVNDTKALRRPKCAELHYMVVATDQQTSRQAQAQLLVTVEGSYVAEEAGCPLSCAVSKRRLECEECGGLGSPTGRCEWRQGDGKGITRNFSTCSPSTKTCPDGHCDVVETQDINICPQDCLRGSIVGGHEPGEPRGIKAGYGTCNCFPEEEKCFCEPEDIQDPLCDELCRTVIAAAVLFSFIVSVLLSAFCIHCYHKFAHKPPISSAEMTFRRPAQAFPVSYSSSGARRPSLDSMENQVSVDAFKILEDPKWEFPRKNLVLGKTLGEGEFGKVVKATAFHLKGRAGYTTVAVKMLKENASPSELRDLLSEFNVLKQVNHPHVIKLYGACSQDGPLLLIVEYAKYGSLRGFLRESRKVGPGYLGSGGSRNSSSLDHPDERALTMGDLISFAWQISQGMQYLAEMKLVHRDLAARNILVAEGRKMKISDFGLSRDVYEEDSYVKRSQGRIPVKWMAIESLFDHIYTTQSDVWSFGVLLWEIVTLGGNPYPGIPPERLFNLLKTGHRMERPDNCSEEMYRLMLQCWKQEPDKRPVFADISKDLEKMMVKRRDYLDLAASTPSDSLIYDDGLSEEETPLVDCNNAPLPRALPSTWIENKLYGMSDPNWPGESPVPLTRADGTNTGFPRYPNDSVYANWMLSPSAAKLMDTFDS

## C=CS(=O)(=O)N1CCC[C@@H]1Cn1cc(-c2ccc3c(c2)OCO3)c2c(N)ncnc21
[1]
  IC50: 89.5 nM
NCI-H1975
  IC50: 920 nM
[2]
  solubility: 100 µg/mL (≈ 234 µM)
Mus musculus [3]
  Activity: Toxic
[4]
  IC50: 883 nM
[5]
  IC50: 5650 nM
[6]
  IC50: 643 nM
[7]
  IC50: 1350 nM
[8]
  IC50: 199 nM
[9]
  IC50: 220 nM
[10]
  IC50: 802 nM
[11]
  IC50: 5910 nM
[12]
  IC50: > 10000 nM
Homo sapiens [13]
  Ratio IC50: 2.5
Homo sapiens [14]
  Ratio IC50: 3.1
Homo sapiens [15]
  Ratio IC50: 25.7
Homo sapiens [16]
  Ratio IC50: 158
Homo sapiens [17]
  Ratio IC50: 37.8
Homo sapiens [18]
  Ratio IC50: 229
Homo sapiens [19]
  Ratio IC50: 2.1
Homo sapiens [20]
  Ratio IC50: 1.6
Homo sapiens [21]
  Ratio IC50: 5.5
Homo sapiens [22]
  Ratio IC50: 12
Homo sapiens [23]
  Ratio IC50: 14.3
Homo sapiens [24]
  Ratio IC50: 79.2
Homo sapiens [25]
  Ratio IC50: 114
Homo sapiens [26]
  Ratio IC50: > 280
Homo sapiens [27]
  Ratio IC50: > 280
Homo sapiens [28]
  Ratio IC50: > 280
Mus musculus [29]
  Activity: Non-Toxic
Mus musculus [30]
  Activity: Non-Toxic
